16 compounds from article PMC9102668, “Highly Cytotoxic Osmium(II) Compounds and Their Ruthenium(II) Analogues Targeting Ovarian Carcinoma Cell Lines and Evading Cisplatin Resistance Mechanisms” (International Journal of Molecular Sciences, 2022) can be followed below.

One may read the IC50 as the point on the concentration scale where inhibition reaches its midpoint.

What all share (assay type): cell-based
In one assay the test system is SKOV3. Put plainly: MTT assay (CellTiter96), cytotoxic activity. As to conditions: 48 h incubation. The procedure:
(§1) The biological behaviour of all substances was characterized by their cytotoxic activity against a panel of cell lines enabling an understanding of the structure-activity relationship. Cytotoxic activity was determined on ovarian carcinoma cell lines SKOV3 and A2780 as well as their Cisplatin resistant analogues (SKOV3cis and A2780cis) and the lung carcinoma cell line A549. Due to a low solubility in water, dmso is used as a solvent for the preparation of a dilution series in cell culture experiments. The toxic influence of dmso was determined earlier and experiments were carried out with 0.5% dmso in cell culture media and this concentration was used as reference sample in each MTT assay (details: Section 3). […] Resistance factors (RF) were determined for all substances (for IC50 values and RF of β-Hydroxydithiocinnamic acid esters L1–L18, see Tables S2 and S3, Supplementary part). All investigated ruthenium(II) compounds show lower RF values than Cisplatin on ovarian carcinoma cell lines, ranging from 0.2 to 1.5 (Table 3). Whereas the IC50 values on the non-resistant cell lines are in most cases higher than the IC50 of the reference substance, no increase of IC50 values is observed for the resistant cell lines. Contrary, eight ruthenium complexes show lower IC50 values on SKOV3cis than Cisplatin and four compounds on A2780cis. Thus, it can be concluded that these compounds are able to bypass the Cisplatin resistance mechanism in these cell lines pointing to a different mechanism of action.
(§2) Ovarian cancer cell lines were cultured under standard conditions (5% CO2, 37 °C, 90% humidity) in RPMI medium supplemented with 10% FCS, 100 U/mL penicillin and 100 µg/mL streptomycin (Life Technologies, Dreieich, Germany). Cisplatin (Sigma, Taufkirchen, Germany) was freshly dissolved at 1 mg/mL in 0.9% NaCl solution and diluted appropriately. New ruthenium(II) complexes and ligands were dissolved in dmso. Platinum-resistant A2780 and SKOV3 cells were established by repeated rounds of 3-day incubations with increasing amounts of Cisplatin starting with 0.1 µM. The concentration was doubled after 3 incubations, interrupted by recovery phases with normal medium. […] Determinations of IC50 values were carried out using the CellTiter96 non-radioactive proliferation assay (MTT assay, Promega, Mannheim, Germany). After seeding 5000 cells per well in a 96-well plate, cells were allowed to attach for 24 h and were incubated for 48 h with different concentrations of the substances ranging from 0 to 500 µM for Ruthenium and 0 to 1000 µM for ligand tests (0, 1, 10, 50, 100, 500, 1000 µm), for Cisplatin from 0 to 100 µM (0.1, 1, 5, 10, 50, 100 µM). Each measurement was done in triplicate and repeated 3 times. The proportion of viable cells was quantified by the MTT assay and after background subtraction relative values compared to the mean of medium controls were calculated. Non-linear regression analyses applying the Hill slope were run in GraphPad 5.0 software.

Another assay has as its system A549. Put plainly: MTT assay (CellTiter96), cytotoxic activity. As to conditions: lung carcinoma cell line, 48 h incubation. The method, then:
as §1, §2
(Formazan colour is commonly taken as a measure of viable cells.)

The test system of another assay is A2780. Kind of assay: MTT assay (CellTiter96), cytotoxic activity. As to conditions: 48 h incubation. The method, then:
as §1, §2

Another assay relates to SKOV3cis. Put plainly: MTT assay (CellTiter96), cytotoxic activity. As to conditions: for IC50: Cisplatin resistant SKOV3, MTT assay, 48 h incubation; for RF SKOV3 (resistance factor): SKOV3cis vs SKOV3. The method, then: as §1, §2
A further assay has as its system A2780cis. Put plainly: MTT assay (CellTiter96), cytotoxic activity. To be noted: for RF A2780 (resistance factor): A2780cis vs A2780; for IC50: Cisplatin resistant A2780, MTT assay, 48 h incubation. The procedure:
as §1, §2

The test system of assay [1] is Cisplatin resistant cell lines. Kind of assay: Mean IC50 (MTT assay) on Cisplatin resistant cell lines. The procedure:
Thus, it can be concluded that the biological activity is mediated by a longer chain (butoxy) at the meta-position, whereas the ortho- and para-positions are more suitable with a shorter chain (ethoxy). To have a further look at the influence of the different ligand systems and substitution patterns, all β-Hydroxydithiocinnamic acid alkyl esters were tested under same conditions as their derived ruthenium(II) complexes (Figure 5B, Supplementary Table S3). […] All ligands are less cytotoxic than Cisplatin itself and therefore the metal(II) center is necessary for the high cytotoxic activity, what is in clear contrast to the literature for O,S-chelating ruthenium(II) or osmium(II) compounds with thiomaltol ligand [48, 71] but confirmed for Ru(II)/Os(II) compounds with N,N-bidentate glycosyl heterocyclic ligands. This is exemplarily shown by the comparison of mean IC50 values for Cisplatin, L14, and Ru14 (Supplementary Figure S8).
as §2

Turning to “[(η^6-p-cymene)Os(1-(2-ethoxyphenyl)-3-(methylthio)-3-thioxo-prop-1-en-1-olate-O,S)] [Os13]”, the 50% inhibitory concentration (IC50) amounted to 4.1 µM in the assay on SKOV3; 3.1 µM in the assay on A549; 0.3 µM with A2780; 7.1 µM in the assay on SKOV3cis; 0.8 µM in the assay on A2780cis. In the assay on SKOV3cis, the “RF SKOV3 (resistance factor)” value is given as 1.7. In the assay with A2780cis, the “RF A2780 (resistance factor)” value came to 2.7.

“[(η^6-p-cymene)Ru(1-(4-butoxyphenyl)-3-(methylthio)-3-thioxo-prop-1-en-1-olate-O,S)] [Ru17]”: the half-inhibitory concentration (IC50) in the assay on SKOV3 came to 17.2 µM; in the assay on A549, 15.1 µM; in the assay on A2780, 14.2 µM; in the assay on SKOV3cis, 17.5 µM; with A2780cis, 9.8 µM. Moreover, in the assay with SKOV3cis, the “RF SKOV3 (resistance factor)” value came to 1. In addition, in the assay on A2780cis, the “RF A2780 (resistance factor)” value is recorded as 0.7.

On to “[(η^6-p-cymene)Os(1-(2-methoxyphenyl)-3-(methylthio)-3-thioxo-prop-1-en-1-olate-O,S)] [Os7]”, for which the IC50 in the assay on SKOV3 came out at 8.8 µM; with A549, 6.2 µM; in the assay on A2780 it was 0.4 µM; in the assay on SKOV3cis it was 0.6 µM; in the assay with A2780cis it was 2.1 µM. Besides, the “RF SKOV3 (resistance factor)” value in the assay with SKOV3cis is 0.1. Besides, the “RF A2780 (resistance factor)” value with A2780cis is given as 5.3.

For `CCSC(=S)C=C([O][Ru][Cl])c1cccc(O)c1.Cc1ccc(C(C)C)cc1` [Ru5, [(η^6-p-cymene)Ru(1-(3-hydroxyphenyl)-3-(ethylthio)-3-thioxo-prop-1-en-1-olate-O,S)Cl]], the “mean IC50 value on Cisplatin resistant cell lines compared with Cisplatin” value in assay [1] was “lower”. For the same compound, the IC50 in the assay with SKOV3 is 15.4 µM; in the assay with A549, 11.5 µM; with A2780, 44.9 µM; in the assay with SKOV3cis it was 9.3 µM; in the assay on A2780cis it was 8.1 µM. Moreover, the “RF SKOV3 (resistance factor)” value in the assay with SKOV3cis is reported as 0.6. Further, the “RF A2780 (resistance factor)” value in the assay on A2780cis is 0.2.

As for “[(η^6-p-cymene)Ru(1-(4-ethoxyphenyl)-3-(methylthio)-3-thioxo-prop-1-en-1-olate-O,S)] [Ru15]”, the “mean IC50 value on Cisplatin resistant cell lines compared with Cisplatin” value in assay [1] is recorded as “lower”. The 50% inhibitory concentration (IC50) was determined as 7.4 µM in the assay with SKOV3; 16.5 µM with A549; 5.8 µM in the assay on A2780; 3.7 µM in the assay on SKOV3cis; 4.4 µM in the assay on A2780cis. Also, the “RF SKOV3 (resistance factor)” value in the assay on SKOV3cis was 0.5. In the assay with A2780cis, the “RF A2780 (resistance factor)” value is recorded as 0.8.

Take “[(η^6-p-cymene)Ru(1-(2-ethoxyphenyl)-3-(methylthio)-3-thioxo-prop-1-en-1-olate-O,S)] [Ru13]”: the half-maximal inhibitory concentration (IC50) came out at 16.9 µM with SKOV3; 28.4 µM in the assay with A549; 2.6 µM in the assay with A2780; 17.4 µM in the assay with SKOV3cis; 4.8 µM in the assay on A2780cis. Also, in the assay with SKOV3cis, the “RF SKOV3 (resistance factor)” value is 1. The “RF A2780 (resistance factor)” value with A2780cis came out at 1.8.

`CSC(=S)C=C([O][Ru][Cl])c1ccc(O)cc1.Cc1ccc(C(C)C)cc1` [Ru4, [(η^6-p-cymene)Ru(1-(4-hydroxyphenyl)-3-(methylthio)-3-thioxo-prop-1-en-1-olate-O,S)Cl]]: the concentration for half-maximal inhibition (IC50) in the assay with SKOV3 came out at 21.8 µM; in the assay with A549, 26.3 µM; in the assay on A2780, 21.4 µM; with SKOV3cis, 27.9 µM; with A2780cis, 21.4 µM. Besides, the “RF SKOV3 (resistance factor)” value with SKOV3cis was determined as 1.3. In addition, the “RF A2780 (resistance factor)” value in the assay with A2780cis is on record as 1.

As for “[(η^6-p-cymene)Ru(1-(3-methoxyphenyl)-3-(methylthio)-3-thioxo-prop-1-en-1-olate-O,S)] [Ru8]”, the IC50 with SKOV3 was determined as 21.3 µM; in the assay on A549 it was 13.7 µM; with A2780, 14.3 µM; in the assay on SKOV3cis it was 20.3 µM; in the assay with A2780cis, 16.8 µM. Besides, in the assay with SKOV3cis, the “RF SKOV3 (resistance factor)” value is 1. In addition, the “RF A2780 (resistance factor)” value in the assay on A2780cis was 1.2.

As to “[(η^6-p-cymene)Ru(1-(3-methoxyphenyl)-3-(ethylthio)-3-thioxo-prop-1-en-1-olate-O,S)] [Ru11]”, the half-maximal inhibitory concentration (IC50) in the assay with SKOV3 worked out at 17 µM; in the assay on A549, 19 µM; in the assay on A2780 it was 15.6 µM; in the assay on SKOV3cis, 16.8 µM; with A2780cis, 11.8 µM. Also, in the assay on SKOV3cis, the “RF SKOV3 (resistance factor)” value was found to be 1. Also, the “RF A2780 (resistance factor)” value with A2780cis was 0.8.

In the case of “[(η^6-p-cymene)Ru(1-(2-methoxyphenyl)-3-(methylthio)-3-thioxo-prop-1-en-1-olate-O,S)] [Ru7]”, the IC50 with SKOV3 stood at 22.4 µM; in the assay with A549 it was 15.3 µM; with A2780, 16.4 µM; with SKOV3cis it was 17.8 µM; in the assay with A2780cis, 15 µM. The “RF SKOV3 (resistance factor)” value with SKOV3cis worked out at 0.8. Moreover, the “RF A2780 (resistance factor)” value in the assay on A2780cis is 0.9.

As for “[(η^6-p-cymene)Ru(1-(4-methoxyphenyl)-3-(ethylthio)-3-thioxo-prop-1-en-1-olate-O,S)] [Ru12]”, the half-maximal inhibitory concentration (IC50) in the assay on SKOV3 was 24 µM; in the assay on A549 it was 6.9 µM; in the assay on A2780, 11 µM; with SKOV3cis it was 12.7 µM; with A2780cis, 10.1 µM. Moreover, the “RF SKOV3 (resistance factor)” value in the assay with SKOV3cis came to 0.5. Also, in the assay on A2780cis, the “RF A2780 (resistance factor)” value was 0.9.

“[(η^6-p-cymene)Os(1-(3-ethoxyphenyl)-3-(methylthio)-3-thioxo-prop-1-en-1-olate-O,S)] [Os14]”: the IC50 stood at 10.4 µM with SKOV3; 5.5 µM with A549; 0.3 µM in the assay on A2780; 12.1 µM in the assay with SKOV3cis; 1.3 µM in the assay on A2780cis. The “RF SKOV3 (resistance factor)” value in the assay on SKOV3cis is recorded as 1.2. Besides, in the assay on A2780cis, the “RF A2780 (resistance factor)” value was 4.3.

With “[(η^6-p-cymene)Ru(1-(3-butoxyphenyl)-3-(methylthio)-3-thioxo-prop-1-en-1-olate-O,S)] [Ru16]”, the half-maximal inhibitory concentration (IC50) in the assay on SKOV3 came to 13.2 µM; in the assay with A549, 4.9 µM; with A2780 it was 5.4 µM; in the assay on SKOV3cis, 13.2 µM; with A2780cis it was 6.8 µM. Besides, in the assay on SKOV3cis, the “RF SKOV3 (resistance factor)” value stood at 1. The “RF A2780 (resistance factor)” value in the assay with A2780cis amounted to 1.3.

“[(η^6-p-cymene)Ru(1-(2-methoxyphenyl)-3-(ethylthio)-3-thioxo-prop-1-en-1-olate-O,S)] [Ru10]”: the 50% inhibitory concentration (IC50) with SKOV3 stood at 27.7 µM; in the assay on A549, 27.7 µM; in the assay with A2780 it was 14.6 µM; with SKOV3cis, 17.7 µM; with A2780cis, 11.7 µM. Moreover, the “RF SKOV3 (resistance factor)” value in the assay on SKOV3cis is listed as 0.6. The “RF A2780 (resistance factor)” value with A2780cis is recorded as 0.8.

Turning to `CCSC(=S)C=C([O][Ru][Cl])c1ccc(O)cc1.Cc1ccc(C(C)C)cc1` [Ru6, [(η^6-p-cymene)Ru(1-(4-hydroxyphenyl)-3-(ethylthio)-3-thioxo-prop-1-en-1-olate-O,S)Cl]], the concentration for half-maximal inhibition (IC50) in the assay with SKOV3 is 28.6 µM; in the assay on A549, 48.5 µM; with A2780, 15.4 µM; with SKOV3cis, 22.6 µM; in the assay on A2780cis, 15.3 µM. Also, in the assay on SKOV3cis, the “RF SKOV3 (resistance factor)” value amounted to 0.8. Besides, the “RF A2780 (resistance factor)” value in the assay on A2780cis was found to be 1.

Regarding “[(η^6-p-cymene)Ru(1-(4-methoxyphenyl)-3-(methylthio)-3-thioxo-prop-1-en-1-olate-O,S)] [Ru9]”, the IC50 stood at 25.3 µM with SKOV3; 39.6 µM in the assay on A549; 24.2 µM in the assay on A2780; 12.5 µM in the assay with SKOV3cis; 16.4 µM in the assay on A2780cis. Moreover, the “RF SKOV3 (resistance factor)” value in the assay with SKOV3cis stood at 0.5. Also, the “RF A2780 (resistance factor)” value with A2780cis was found to be 0.7.
